The record followed here is PubChem BioAssay (NCI).

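Each compound was tested at five concentrations against cells in 96-well plates for 48 hours. TGI denotes the concentration required for complete inhibition of growth.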

One assay relates to CAKI-1 renal. The assay can be described thus: NCI anticancer screen, dose series, 48 h.
Take `C[C@@H](C(=O)O)N1C(c2ccco2)=C(/C(C=O)=C\c2ccco2)C(=O)/C1=C\c1ccco1`: the TGI was above 100 µM.
On to `O=c1oc2ccccc2c(Nc2ccc3c(c2)Sc2ccccc2O3)c1[N+](=O)[O-]`, for which the TGI is above 100 µM.
On to `O=C(NN1C(=O)C(Cl)C1c1ccc(Cl)cc1)c1c(Cl)c(Cl)c(Cl)c(Cl)c1-c1nc2ccccc2[nH]1` (configuration not stated), for which the TGI stood at 23.2 µM.

A further assay relates to HCT-15 colon. Nature of the assay: NCI anticancer screen, dose series, 48 h.
With `O=C(O)CO[C@@]12C#C/C=C\C#C[C@@H]3N(C(=O)Oc4ccccc4)c4ccccc4[C@]14O[C@@]34CCC2`, the TGI was determined as 31.2 µM.
The molecule `CC(C)(C)C1=C(Br)C(C(C)(C)C)OP1(=O)O` (configuration not stated) displayed a TGI above 100 µM.
On to `Cc1c(-c2ccccc2)cc(O)c2nc3ccccc3n12`, for which the TGI is above 100 µM.
Regarding `Cc1cccc(Cl)c1NCC(O)CN1CCN(C)CC1` (configuration not stated), the TGI was above 100 µM.
`Cc1ccc(C(=O)O)c(/C=C2\Cc3ccc(C)cc3C2=O)c1`: the TGI was above 100 µM.
`COc1c(=O)cc2cc[nH]c3cc[nH]c1c23` displayed a TGI above 100 µM.
`CC(C)NC(=O)OCc1c2c(n(C)c1COC(=O)NC(C)C)-c1cc(Cl)c(Cl)cc1CC2` came in with a TGI above 100 µM.
On the same count and under the same terms, for `CCOC(=O)c1sc(=S)n(-c2ccc(Cl)cc2)c1-n1cc(-c2ccccc2)c(C#N)c1N` the value was above 100 µM; for `COC1(OC)N=C(N)C2(C#N)C(c3ccccc3)NC3=C(CCC3)C12C#N` (configuration not stated), above 100 µM.
`Cc1cc(C)c2c(=O)cc(-c3cccc4ccccc34)[nH]c2n1` yielded a TGI of 14.3 µM.
Molecule `N#Cc1c(-c2ccc(Cl)cc2)c2c(n(C3OC(CO)C(O)C(O)C3O)c1=S)CCCC2` (configuration not stated) registered a TGI above 100 µM.
As for `COc1ccc2nc(N/N=C/c3sccc3C)cc(C)c2c1`, the TGI worked out at 30.5 µM.
Molecule `Nc1cc([N+](=O)[O-])ccc1C(=O)N1CCC[C@H]1CO` gave a TGI above 100 µM.
Same read-out and setting: for `CC[C@@H](C)[C@H](NC(=O)[C@H](Cc1ccccc1)NCC(F)(F)F)C(=O)OC(C)(C)C` the value was above 100 µM; for `NC(=Nc1ccccc1Cl)c1ccccc1N`, above 100 µM.
Still for that read-out and setting: as for `C[C@@H](C(=O)O)N1C(c2ccco2)=C(/C(C=O)=C\c2ccco2)C(=O)/C1=C\c1ccco1`, the figure is above 100 µM; as for `O=c1oc2ccccc2c(Nc2ccc3c(c2)Sc2ccccc2O3)c1[N+](=O)[O-]`, above 100 µM.
`O=C(NN1C(=O)C(Cl)C1c1ccc(Cl)cc1)c1c(Cl)c(Cl)c(Cl)c(Cl)c1-c1nc2ccccc2[nH]1` (configuration not stated) displayed a TGI of 54.4 µM.

The subject of another assay is HOP-92 NSCLC. Nature of the assay: NCI anticancer screen, dose series, 48 h.
In turn, `O=C(O)CO[C@@]12C#C/C=C\C#C[C@@H]3N(C(=O)Oc4ccccc4)c4ccccc4[C@]14O[C@@]34CCC2` showed a TGI above 100 µM.
The molecule `CC(C)(C)C1=C(Br)C(C(C)(C)C)OP1(=O)O` (configuration not stated) displayed a TGI above 100 µM.
For `Cc1c(-c2ccccc2)cc(O)c2nc3ccccc3n12`, the TGI was above 100 µM.
In turn, `Cc1cccc(Cl)c1NCC(O)CN1CCN(C)CC1` (configuration not stated) had a TGI above 100 µM.
The same measure, in the same setting: for `Cc1ccc(C(=O)O)c(/C=C2\Cc3ccc(C)cc3C2=O)c1` the value was above 100 µM; for `COc1c(=O)cc2cc[nH]c3cc[nH]c1c23`, above 100 µM; for `CC(C)NC(=O)OCc1c2c(n(C)c1COC(=O)NC(C)C)-c1cc(Cl)c(Cl)cc1CC2`, 70.9 µM.
In turn, `CCOC(=O)c1sc(=S)n(-c2ccc(Cl)cc2)c1-n1cc(-c2ccccc2)c(C#N)c1N` gave a TGI of 31.2 µM.
`COC1(OC)N=C(N)C2(C#N)C(c3ccccc3)NC3=C(CCC3)C12C#N` (configuration not stated) displayed a TGI above 100 µM.
In turn, `Cc1cc(C)c2c(=O)cc(-c3cccc4ccccc34)[nH]c2n1` yielded a TGI above 77.1 µM.
For `N#Cc1c(-c2ccc(Cl)cc2)c2c(n(C3OC(CO)C(O)C(O)C3O)c1=S)CCCC2` (configuration not stated), the TGI is above 100 µM.
For the molecule `COc1ccc2nc(N/N=C/c3sccc3C)cc(C)c2c1`, the TGI was 26.4 µM.
Still for that read-out and setting: for `Nc1cc([N+](=O)[O-])ccc1C(=O)N1CCC[C@H]1CO` the value was above 100 µM; for `CC[C@@H](C)[C@H](NC(=O)[C@H](Cc1ccccc1)NCC(F)(F)F)C(=O)OC(C)(C)C`, above 100 µM.
For the molecule `NC(=Nc1ccccc1Cl)c1ccccc1N`, the TGI stood at 86.5 µM.
As to `C[C@@H](C(=O)O)N1C(c2ccco2)=C(/C(C=O)=C\c2ccco2)C(=O)/C1=C\c1ccco1`, the TGI was above 100 µM.
In turn, `O=c1oc2ccccc2c(Nc2ccc3c(c2)Sc2ccccc2O3)c1[N+](=O)[O-]` displayed a TGI of 71.2 µM.
The molecule `O=C(NN1C(=O)C(Cl)C1c1ccc(Cl)cc1)c1c(Cl)c(Cl)c(Cl)c(Cl)c1-c1nc2ccccc2[nH]1` (configuration not stated) returned a TGI of 51.4 µM.

Another assay deals with HS 578T breast. Nature of the assay: NCI anticancer screen, dose series, 48 h.
In turn, `O=C(O)CO[C@@]12C#C/C=C\C#C[C@@H]3N(C(=O)Oc4ccccc4)c4ccccc4[C@]14O[C@@]34CCC2` displayed a TGI of 69.4 µM.
Same read-out and setting: for `CC(C)(C)C1=C(Br)C(C(C)(C)C)OP1(=O)O` (configuration not stated) the value was above 100 µM; for `Cc1c(-c2ccccc2)cc(O)c2nc3ccccc3n12`, above 100 µM; for `Cc1cccc(Cl)c1NCC(O)CN1CCN(C)CC1` (configuration not stated), above 100 µM.
For `Cc1ccc(C(=O)O)c(/C=C2\Cc3ccc(C)cc3C2=O)c1`, the TGI was above 100 µM.
With `COc1c(=O)cc2cc[nH]c3cc[nH]c1c23`, the TGI was above 100 µM.
`CC(C)NC(=O)OCc1c2c(n(C)c1COC(=O)NC(C)C)-c1cc(Cl)c(Cl)cc1CC2` returned a TGI above 100 µM.
`CCOC(=O)c1sc(=S)n(-c2ccc(Cl)cc2)c1-n1cc(-c2ccccc2)c(C#N)c1N` showed a TGI of 14.5 µM.
`COC1(OC)N=C(N)C2(C#N)C(c3ccccc3)NC3=C(CCC3)C12C#N` (configuration not stated) gave a TGI above 100 µM.
Still for that read-out and setting: for `Cc1cc(C)c2c(=O)cc(-c3cccc4ccccc34)[nH]c2n1` the value was above 100 µM; for `N#Cc1c(-c2ccc(Cl)cc2)c2c(n(C3OC(CO)C(O)C(O)C3O)c1=S)CCCC2` (configuration not stated), above 100 µM; for `COc1ccc2nc(N/N=C/c3sccc3C)cc(C)c2c1`, 55.3 µM.
In the case of `Nc1cc([N+](=O)[O-])ccc1C(=O)N1CCC[C@H]1CO`, the TGI is above 100 µM.
On the same count and under the same terms, for `CC[C@@H](C)[C@H](NC(=O)[C@H](Cc1ccccc1)NCC(F)(F)F)C(=O)OC(C)(C)C` the value was above 100 µM.
`NC(=Nc1ccccc1Cl)c1ccccc1N` registered a TGI above 100 µM.
The same measure, in the same setting: as for `C[C@@H](C(=O)O)N1C(c2ccco2)=C(/C(C=O)=C\c2ccco2)C(=O)/C1=C\c1ccco1`, the figure is above 100 µM; as for `O=c1oc2ccccc2c(Nc2ccc3c(c2)Sc2ccccc2O3)c1[N+](=O)[O-]`, above 100 µM; as for `O=C(NN1C(=O)C(Cl)C1c1ccc(Cl)cc1)c1c(Cl)c(Cl)c(Cl)c(Cl)c1-c1nc2ccccc2[nH]1` (configuration not stated), above 100 µM.

For a further assay, the system named is MDA-MB-435. The assay can be described thus: NCI anticancer screen, dose series, 48 h.
`O=C(O)CO[C@@]12C#C/C=C\C#C[C@@H]3N(C(=O)Oc4ccccc4)c4ccccc4[C@]14O[C@@]34CCC2`: the TGI came to 6.29 µM.
`CC(C)(C)C1=C(Br)C(C(C)(C)C)OP1(=O)O` (configuration not stated) gave a TGI above 100 µM.
In turn, `Cc1c(-c2ccccc2)cc(O)c2nc3ccccc3n12` showed a TGI above 100 µM.
`Cc1cccc(Cl)c1NCC(O)CN1CCN(C)CC1` (configuration not stated) showed a TGI above 100 µM.
The molecule `Cc1ccc(C(=O)O)c(/C=C2\Cc3ccc(C)cc3C2=O)c1` registered a TGI above 100 µM.
In turn, `COc1c(=O)cc2cc[nH]c3cc[nH]c1c23` showed a TGI above 100 µM.
For the molecule `CC(C)NC(=O)OCc1c2c(n(C)c1COC(=O)NC(C)C)-c1cc(Cl)c(Cl)cc1CC2`, the TGI was above 100 µM.
On to `CCOC(=O)c1sc(=S)n(-c2ccc(Cl)cc2)c1-n1cc(-c2ccccc2)c(C#N)c1N`, for which the TGI is above 100 µM.
The same measure, in the same setting: as for `COC1(OC)N=C(N)C2(C#N)C(c3ccccc3)NC3=C(CCC3)C12C#N` (configuration not stated), the figure is above 100 µM; as for `Cc1cc(C)c2c(=O)cc(-c3cccc4ccccc34)[nH]c2n1`, 0.513 µM.
